In ChEMBL document CHEMBL4507311, “Data for DCP probe A-1155463” (2021):

How the values were obtained:
[1] = target: T1, Alpha-2B adrenergic receptor (Homo sapiens) (UniProt P18089); settings: Compound concentration 10.0 uM
T1 sequence (whole entry): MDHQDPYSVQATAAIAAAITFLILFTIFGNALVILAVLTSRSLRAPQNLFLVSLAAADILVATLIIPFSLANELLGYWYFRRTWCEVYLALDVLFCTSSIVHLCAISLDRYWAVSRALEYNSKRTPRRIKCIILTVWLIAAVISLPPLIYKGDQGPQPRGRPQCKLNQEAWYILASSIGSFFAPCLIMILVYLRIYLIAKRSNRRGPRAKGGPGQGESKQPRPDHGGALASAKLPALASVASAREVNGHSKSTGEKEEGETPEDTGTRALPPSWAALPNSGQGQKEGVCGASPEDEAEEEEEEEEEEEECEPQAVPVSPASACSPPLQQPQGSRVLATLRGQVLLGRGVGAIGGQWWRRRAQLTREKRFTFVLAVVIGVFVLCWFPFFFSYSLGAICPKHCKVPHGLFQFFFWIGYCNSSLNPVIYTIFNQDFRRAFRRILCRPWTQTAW

[2] = target: Serine/threonine-protein kinase MAK (Homo sapiens) (UniProt P20794); settings: Compound concentration 1000.0 nM
[3] = target: Activin receptor type-1B (Homo sapiens) (UniProt P36896); settings: Compound concentration 1000.0 nM
[4] = system: RS4-11; test: CellTiter-Glo Luminescent Cell Viability Assay (BCL-2 dependent cell line RS4-11); type: functional, cell-based; settings: Homo sapiens
[5] = system: Receptor-type tyrosine-protein kinase FLT3 (Homo sapiens), P36888 [D835Y]; settings: Compound concentration 1000.0 nM
[6] = target: 5'-AMP-activated protein kinase catalytic subunit alpha-2 (Homo sapiens) (UniProt P54646); settings: Compound concentration 1000.0 nM
[7] = target: cGMP-dependent protein kinase 2 (Homo sapiens) (UniProt Q13237); settings: Compound concentration 1000.0 nM
Chain of cGMP-dependent protein kinase 2 (Homo sapiens) (Q13237 whole entry): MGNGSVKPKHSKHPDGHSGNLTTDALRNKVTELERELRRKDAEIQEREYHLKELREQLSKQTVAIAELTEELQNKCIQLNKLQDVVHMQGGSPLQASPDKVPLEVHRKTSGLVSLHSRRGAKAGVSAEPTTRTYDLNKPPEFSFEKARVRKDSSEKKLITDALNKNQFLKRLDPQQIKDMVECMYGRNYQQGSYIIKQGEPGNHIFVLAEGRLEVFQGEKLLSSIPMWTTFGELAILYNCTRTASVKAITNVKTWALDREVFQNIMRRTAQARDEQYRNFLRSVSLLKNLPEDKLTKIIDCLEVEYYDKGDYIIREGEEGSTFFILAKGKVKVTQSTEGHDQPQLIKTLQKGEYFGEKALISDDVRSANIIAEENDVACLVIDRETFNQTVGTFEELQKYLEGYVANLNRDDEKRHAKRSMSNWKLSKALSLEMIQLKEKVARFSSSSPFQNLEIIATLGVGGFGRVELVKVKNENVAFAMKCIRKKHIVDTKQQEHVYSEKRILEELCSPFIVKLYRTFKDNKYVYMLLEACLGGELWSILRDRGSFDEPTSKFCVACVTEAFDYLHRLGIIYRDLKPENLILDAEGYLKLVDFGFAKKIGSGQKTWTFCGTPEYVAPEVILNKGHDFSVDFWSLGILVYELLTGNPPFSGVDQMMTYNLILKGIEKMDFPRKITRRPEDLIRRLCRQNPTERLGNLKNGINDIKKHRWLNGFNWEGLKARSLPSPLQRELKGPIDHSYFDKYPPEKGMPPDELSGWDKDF

[8] = target: Kappa-type opioid receptor (Homo sapiens) (UniProt P41145); test: kappa (h) (KOP) Eurofins-Cerep binding assay; set-up: ligand concentration 0.5 nM; settings: filed as agonist, Compound concentration 10.0 uM
Chain of Kappa-type opioid receptor (Homo sapiens) (P41145 whole entry): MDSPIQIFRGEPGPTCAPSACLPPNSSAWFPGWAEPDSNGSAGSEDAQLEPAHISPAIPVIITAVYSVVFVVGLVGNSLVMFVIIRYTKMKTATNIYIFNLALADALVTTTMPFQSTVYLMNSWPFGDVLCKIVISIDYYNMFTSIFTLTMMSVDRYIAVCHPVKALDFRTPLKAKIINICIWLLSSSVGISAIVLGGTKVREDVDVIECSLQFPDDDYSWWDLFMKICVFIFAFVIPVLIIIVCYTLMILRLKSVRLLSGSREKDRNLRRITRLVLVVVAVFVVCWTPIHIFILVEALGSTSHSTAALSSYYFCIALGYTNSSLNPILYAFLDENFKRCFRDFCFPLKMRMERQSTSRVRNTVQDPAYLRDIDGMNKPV

[9] = target: Cyclin-dependent kinase 3 (Homo sapiens) (UniProt Q00526); settings: Compound concentration 1000.0 nM
[10] = target: Vascular endothelial growth factor receptor 1 (Homo sapiens) (UniProt P17948); settings: Compound concentration 1000.0 nM
[11] = target: L-type Ca2+ channel (diltiazem site, benzothiazepines) (Rattus norvegicus, UniProt P22002+P27732+Q02485); test: Ca2+ channel (L, diltiazem site) (benzothiazepines) Eurofins-Cerep binding assay; type: protein assay; set-up: incubation time 120 min, incubation temperature RT, ligand concentration 15 nM; settings: rat cerebral cortex, probe [3H]diltiazem (15 nM), compound concentration 10 uM, read-out: % Inhibition of Control Specific Binding (Mean n=2)
[12] = system: Tyrosine-protein kinase ABL1 (Homo sapiens), P00519 [F317I]; settings: Compound concentration 1000.0 nM
Chain of Tyrosine-protein kinase ABL1 (Homo sapiens), P00519 [F317I] (P00519 whole entry F317I): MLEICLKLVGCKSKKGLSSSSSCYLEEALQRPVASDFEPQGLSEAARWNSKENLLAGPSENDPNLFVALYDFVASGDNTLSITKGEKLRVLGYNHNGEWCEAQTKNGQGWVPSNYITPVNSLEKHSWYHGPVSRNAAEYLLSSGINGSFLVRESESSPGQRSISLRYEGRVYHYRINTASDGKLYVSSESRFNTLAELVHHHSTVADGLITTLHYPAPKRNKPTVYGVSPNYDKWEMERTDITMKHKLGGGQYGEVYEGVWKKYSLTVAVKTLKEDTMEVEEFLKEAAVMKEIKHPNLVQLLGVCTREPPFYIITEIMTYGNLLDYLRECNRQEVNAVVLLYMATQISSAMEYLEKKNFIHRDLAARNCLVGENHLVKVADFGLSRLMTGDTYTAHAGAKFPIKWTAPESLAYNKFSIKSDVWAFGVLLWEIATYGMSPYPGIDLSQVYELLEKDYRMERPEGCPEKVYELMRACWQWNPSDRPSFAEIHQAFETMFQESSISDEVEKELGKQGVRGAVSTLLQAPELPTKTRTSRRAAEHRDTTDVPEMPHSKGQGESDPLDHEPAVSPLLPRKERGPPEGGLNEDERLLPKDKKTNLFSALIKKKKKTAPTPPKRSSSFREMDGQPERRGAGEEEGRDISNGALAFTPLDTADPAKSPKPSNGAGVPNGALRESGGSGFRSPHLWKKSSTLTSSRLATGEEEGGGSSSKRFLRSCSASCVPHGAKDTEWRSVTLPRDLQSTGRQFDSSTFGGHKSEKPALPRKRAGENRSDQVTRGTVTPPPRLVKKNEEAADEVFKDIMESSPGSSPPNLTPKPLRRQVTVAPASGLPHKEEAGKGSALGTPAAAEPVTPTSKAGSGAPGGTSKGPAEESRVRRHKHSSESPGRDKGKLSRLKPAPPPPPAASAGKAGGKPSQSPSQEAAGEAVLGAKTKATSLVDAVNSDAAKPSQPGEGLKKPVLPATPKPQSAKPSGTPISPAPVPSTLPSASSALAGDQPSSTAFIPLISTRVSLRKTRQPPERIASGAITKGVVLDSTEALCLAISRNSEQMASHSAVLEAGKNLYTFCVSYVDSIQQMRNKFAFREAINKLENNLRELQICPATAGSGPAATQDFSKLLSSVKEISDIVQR

[13] = target: Urotensin-2 receptor (Homo sapiens) (UniProt Q9UKP6); test: UT (h) Eurofins-Cerep binding assay; set-up: ligand concentration 0.1 nM; settings: filed as agonist, Compound concentration 10.0 uM
Chain of Urotensin-2 receptor (Homo sapiens) (Q9UKP6 whole entry): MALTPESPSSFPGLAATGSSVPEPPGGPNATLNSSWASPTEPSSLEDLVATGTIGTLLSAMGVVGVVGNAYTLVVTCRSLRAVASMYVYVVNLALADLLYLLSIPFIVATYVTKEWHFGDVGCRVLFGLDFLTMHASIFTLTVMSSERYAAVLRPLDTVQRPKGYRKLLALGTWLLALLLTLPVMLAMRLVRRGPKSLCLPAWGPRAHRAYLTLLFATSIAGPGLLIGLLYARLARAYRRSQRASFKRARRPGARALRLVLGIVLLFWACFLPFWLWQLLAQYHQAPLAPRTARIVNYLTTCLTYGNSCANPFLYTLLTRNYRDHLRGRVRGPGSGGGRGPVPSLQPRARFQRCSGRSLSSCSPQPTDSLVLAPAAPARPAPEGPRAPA

[14] = target: Non-receptor tyrosine-protein kinase TYK2 (Homo sapiens) (UniProt P29597); settings: Compound concentration 1000.0 nM
[15] = target: Tyrosine-protein kinase BTK (Homo sapiens) (UniProt Q06187); settings: Compound concentration 1000.0 nM
Chain of Tyrosine-protein kinase BTK (Homo sapiens) (Q06187 whole entry): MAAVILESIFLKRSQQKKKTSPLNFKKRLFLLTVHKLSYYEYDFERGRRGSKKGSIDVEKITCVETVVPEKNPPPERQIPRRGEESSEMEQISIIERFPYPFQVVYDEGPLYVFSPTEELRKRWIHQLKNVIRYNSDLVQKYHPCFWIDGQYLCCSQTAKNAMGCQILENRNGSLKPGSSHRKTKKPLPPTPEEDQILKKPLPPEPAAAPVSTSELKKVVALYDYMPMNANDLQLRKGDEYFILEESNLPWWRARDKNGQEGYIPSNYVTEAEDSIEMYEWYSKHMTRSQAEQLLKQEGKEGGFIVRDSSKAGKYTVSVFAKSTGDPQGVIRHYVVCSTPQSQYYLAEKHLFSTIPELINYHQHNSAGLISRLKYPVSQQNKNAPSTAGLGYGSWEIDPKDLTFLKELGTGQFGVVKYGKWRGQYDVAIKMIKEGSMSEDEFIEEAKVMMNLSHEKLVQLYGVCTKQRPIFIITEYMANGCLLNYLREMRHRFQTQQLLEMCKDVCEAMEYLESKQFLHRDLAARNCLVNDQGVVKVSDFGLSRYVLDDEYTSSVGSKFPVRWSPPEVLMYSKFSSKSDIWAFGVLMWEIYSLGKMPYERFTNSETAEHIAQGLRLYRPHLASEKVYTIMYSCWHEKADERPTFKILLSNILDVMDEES

[16] = target: Neuropeptide Y receptor type 1 (Homo sapiens) (UniProt P25929); test: Y1 (h) Eurofins-Cerep binding assay; set-up: ligand concentration 0.025 nM; settings: filed as agonist, Compound concentration 10.0 uM
Chain of Neuropeptide Y receptor type 1 (Homo sapiens) (P25929 whole entry): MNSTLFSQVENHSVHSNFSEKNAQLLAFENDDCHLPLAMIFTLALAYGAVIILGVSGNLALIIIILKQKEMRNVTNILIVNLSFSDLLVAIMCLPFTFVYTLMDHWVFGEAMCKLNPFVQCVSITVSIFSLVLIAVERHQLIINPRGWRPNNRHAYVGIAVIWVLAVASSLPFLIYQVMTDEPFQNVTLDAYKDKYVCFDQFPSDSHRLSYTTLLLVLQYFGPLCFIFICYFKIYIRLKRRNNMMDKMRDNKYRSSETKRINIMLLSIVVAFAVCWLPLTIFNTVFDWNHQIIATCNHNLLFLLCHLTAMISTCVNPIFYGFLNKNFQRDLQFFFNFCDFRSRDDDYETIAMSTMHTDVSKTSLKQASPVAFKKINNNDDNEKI

[17] = target: Myosin light chain kinase (Homo sapiens) (UniProt Q32MK0); settings: Compound concentration 1000.0 nM
[18] = target: 5-hydroxytryptamine receptor 1E (Homo sapiens) (UniProt P28566); settings: Compound concentration 10.0 uM
Chain of 5-hydroxytryptamine receptor 1E (Homo sapiens) (P28566 whole entry): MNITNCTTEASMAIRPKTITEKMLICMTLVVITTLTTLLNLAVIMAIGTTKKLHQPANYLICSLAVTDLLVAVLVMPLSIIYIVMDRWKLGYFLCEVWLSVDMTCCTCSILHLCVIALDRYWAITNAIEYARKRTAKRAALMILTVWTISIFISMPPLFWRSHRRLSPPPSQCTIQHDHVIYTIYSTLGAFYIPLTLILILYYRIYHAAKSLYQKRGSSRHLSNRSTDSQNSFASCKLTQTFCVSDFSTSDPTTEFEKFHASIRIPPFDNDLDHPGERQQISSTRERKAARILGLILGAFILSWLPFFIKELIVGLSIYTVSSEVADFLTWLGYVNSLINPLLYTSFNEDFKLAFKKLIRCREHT

[19] = target: MAP kinase-interacting serine/threonine-protein kinase 1 (Homo sapiens) (UniProt Q9BUB5); settings: Compound concentration 1000.0 nM
[20] = target: Serine/threonine-protein kinase WNK3 (Homo sapiens) (UniProt Q9BYP7); settings: Compound concentration 1000.0 nM
[21] = system: ALK tyrosine kinase receptor (Homo sapiens), Q9UM73 [C1156Y]; settings: Compound concentration 1000.0 nM
[22] = target: RAC-beta serine/threonine-protein kinase (Homo sapiens) (UniProt P31751); settings: Compound concentration 1000.0 nM
Chain of RAC-beta serine/threonine-protein kinase (Homo sapiens) (P31751 whole entry): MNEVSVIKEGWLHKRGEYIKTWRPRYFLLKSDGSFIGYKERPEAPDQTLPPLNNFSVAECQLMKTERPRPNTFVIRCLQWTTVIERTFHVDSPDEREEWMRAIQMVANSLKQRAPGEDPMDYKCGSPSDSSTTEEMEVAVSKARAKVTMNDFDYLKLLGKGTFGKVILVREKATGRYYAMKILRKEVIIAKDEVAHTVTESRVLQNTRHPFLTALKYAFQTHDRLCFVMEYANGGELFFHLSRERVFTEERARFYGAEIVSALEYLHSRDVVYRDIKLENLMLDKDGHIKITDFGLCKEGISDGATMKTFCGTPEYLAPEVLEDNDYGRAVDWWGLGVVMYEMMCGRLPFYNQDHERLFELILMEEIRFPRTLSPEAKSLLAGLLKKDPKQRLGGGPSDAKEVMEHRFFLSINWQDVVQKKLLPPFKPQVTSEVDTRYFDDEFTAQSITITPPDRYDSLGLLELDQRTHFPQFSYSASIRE

[23] = target: Dual specificity mitogen-activated protein kinase kinase 7 (Homo sapiens) (UniProt O14733); settings: Compound concentration 1000.0 nM
[24] = target: Serine/threonine-protein kinase ICK (Homo sapiens) (UniProt Q9UPZ9); settings: Compound concentration 1000.0 nM
[25] = target: Transient receptor potential cation channel subfamily M member 6 (Homo sapiens) (UniProt Q9BX84); settings: Compound concentration 1000.0 nM
[26] = target: Histamine H2 receptor (Homo sapiens) (UniProt P25021); settings: Compound concentration 10.0 uM
[27] = target: Melatonin receptor type 1B (Homo sapiens) (UniProt P49286); test: MT2 (ML1B) (h) Eurofins-Cerep binding assay; set-up: ligand concentration 0.05 nM; settings: filed as agonist, Compound concentration 10.0 uM
Chain of Melatonin receptor type 1B (Homo sapiens) (P49286 whole entry): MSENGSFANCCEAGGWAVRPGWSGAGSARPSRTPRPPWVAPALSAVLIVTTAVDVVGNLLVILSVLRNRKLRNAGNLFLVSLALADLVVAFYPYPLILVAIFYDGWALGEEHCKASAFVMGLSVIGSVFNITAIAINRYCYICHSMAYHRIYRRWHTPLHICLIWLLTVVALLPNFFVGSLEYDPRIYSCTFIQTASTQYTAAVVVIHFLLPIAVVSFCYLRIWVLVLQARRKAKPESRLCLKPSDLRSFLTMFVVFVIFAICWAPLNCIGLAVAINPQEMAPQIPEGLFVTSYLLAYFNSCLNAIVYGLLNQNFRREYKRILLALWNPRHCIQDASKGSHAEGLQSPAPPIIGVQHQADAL

[28] = target: Beta-adrenergic receptor kinase 1 (Homo sapiens) (UniProt P25098); settings: Compound concentration 1000.0 nM
[29] = target: Leucine-rich repeat serine/threonine-protein kinase 2 (Homo sapiens) (UniProt Q5S007); settings: Compound concentration 1000.0 nM
[30] = system: Hepatocyte growth factor receptor (Homo sapiens), P08581 [M1250T]; settings: Compound concentration 1000.0 nM
[31] = target: cAMP-dependent protein kinase catalytic subunit beta (Homo sapiens) (UniProt P22694); settings: Compound concentration 1000.0 nM
[32] = target: Glutamate NMDA receptor (Rattus norvegicus) (UniProt P35439+Q00959+Q00960+Q00961+Q62645+Q8VHN2+Q9R1M7); test: NMDA Eurofins-Cerep binding assay; type: protein-complex assay; set-up: ligand concentration 5 nM; settings: filed as antagonist, Compound concentration 10.0 uM
[33] = target: GABA-A receptor; anion channel (Rattus norvegicus) (UniProt O09028+P15431+P18506+P18508+P19969+P20236+P23574+P23576+P28471+P28473+P30191+P62813+P63079+P63138+Q91ZM7+Q9ES14); test: Cl- channel (GABA-gated) Eurofins-Cerep binding assay; type: protein-complex assay; set-up: ligand concentration 3 nM; settings: filed as antagonist, Compound concentration 10.0 uM
[34] = target: Casein kinase I isoform alpha (Homo sapiens) (UniProt P48729); settings: Compound concentration 1000.0 nM
[35] = target: Serine/threonine-protein kinase NLK (Homo sapiens) (UniProt Q9UBE8); settings: Compound concentration 1000.0 nM
[36] = target: Serine/threonine-protein kinase SBK1 (Homo sapiens) (UniProt Q52WX2); settings: Compound concentration 1000.0 nM

SMILES: CN(C)CC#Cc1ccc(OCCCc2sc(N3CCc4cccc(C(=O)Nc5nc6ccccc6s5)c4C3)nc2C(=O)O)c(F)c1 [A-1155463]
- inhibition [1]: 17.2%
- residual activity [2]: 100%
- residual activity [3]: 100%
- EC50 [4]: > 10 µM (not active)
- residual activity [5]: 83%
- residual activity [6]: 99%
- residual activity [7]: 86%
- % Inhibition of Control Specific Binding (Mean n=2) [8]: 34.4%
- residual activity [9]: 68%
- residual activity [10]: 92%
- inhibition at 120 min, 10 µM [11]: 10.8%
- residual activity [12]: 100%
- % Inhibition of Control Specific Binding (Mean n=2) [13]: 94.9%
- residual activity [14]: 85%
- residual activity [15]: 96%
- % Inhibition of Control Specific Binding (Mean n=2) [16]: 12.5%
- residual activity [17]: 78%
- inhibition [18]: -4.32%
- residual activity [19]: 78%
- residual activity [20]: 100%
- residual activity [21]: 100%
- residual activity [22]: 100%
- residual activity [23]: 69%
- residual activity [24]: 100%
- residual activity [25]: 84%
- inhibition [26]: 23.2%
- % Inhibition of Control Specific Binding (Mean n=2) [27]: 20.1%
- residual activity [28]: 100%
- residual activity [29]: 100%
- residual activity [30]: 100%
- residual activity [31]: 100%
- % Inhibition of Control Specific Binding (Mean n=2) [32]: 21.6%
- % Inhibition of Control Specific Binding (Mean n=2) [33]: 9.9%
- residual activity [34]: 71%
- residual activity [35]: 80%
- residual activity [36]: 100%

SMILES: O=C(Nc1nc2ccccc2s1)c1cccc2c1CN(c1nc(C(=O)O)c(CCOc3ccc(-n4ncc5cncnc54)cc3)s1)CC2 [A-1107969]
- % Inhibition of Control Specific Binding (Mean n=2) [8]: 17%
- inhibition at 120 min, 10 µM [11]: 16.2%
- % Inhibition of Control Specific Binding (Mean n=2) [13]: 62.2%
- % Inhibition of Control Specific Binding (Mean n=2) [16]: -0.4%
- % Inhibition of Control Specific Binding (Mean n=2) [27]: 8.7%
- % Inhibition of Control Specific Binding (Mean n=2) [32]: 7.8%
- % Inhibition of Control Specific Binding (Mean n=2) [33]: 11.2%
